According to patent US8518946B2, “Salts of (R)-7-[3-amino-4-(2,4,5-trifluorophenyl)butanoyl]-3-trifluoromethyl-5,6,7,8-tetrahydroimidazo[1,5-a] pyrazine-1-carboxylic acid, preparation method and medical use thereof” (Jiangsu Hengrui Medicine Co., Ltd., priority 2009, dated 2013):
Like-named read-outs stand apart in the source and are kept apart here.

Assays:
DPP-IX = molecular target: T1, DPP-IX (Homo sapiens, UniProt Q86TI2); experiment: DPP-IX inhibition, Promega DPPIV-Glo Protease Assay; type: biochemical; conditions: read-out: IC50 DPP9
T1 construct: purchased Bioscience 80090
Procedure: (§1) The compounds of the present invention were tested to determine their DPP-IV, DPP-VIII, DPP-IX inhibition activity according to the following methods. The half inhibition concentrations IC50 (the concentration of the test compound showing 50% inhibition to the enzyme activity) of each compound were determined by reaction test and calculation of the mixture of fixed amounts of enzyme and substrate with several different concentrations of the test compounds.
(§2) The compounds of the present invention were tested to determine the DPP-IV, DPP-VIII, DPP-IX inhibition activity in the following tests using Promega DPPIV-Glo™ Protease Assay (Cat No. G8350/G8351) Kit, wherein:
c. DPP-IX enzyme bought from Bioscience, Catalog no. 80090.
(§3) The preparation procedure of the conventional reagent such as DPPIV-Glo buffer, luciferin reagents needed in the test and the detail operation of the test can refer to the specifications of the kits. The assay was carried out as following steps:
(§4) The tested compounds were dissolved in DMSO to prepare a series of different concentrations of the test compound solution. DPPIV-Glo buffer and the freezing luciferin detection reagent were equilibrated to room temperature. The luciferin detection reagent was dissolved in moderate buffer in a brown flask to form a solution. Then DPP-IV-Glo. was dissolved in ultrapure water to give the appropriate concentration. The substrate solution and the luciferin detection reagent solution were mixed sufficiently in an appropriate ratio (the ratio of the invention is 1:49), and the mixture was layed at room temperature for 30-60 minutes. Tris buffer (2 mM, pH 8.0), the test compounds and DPP-IV (DPP-VIII or DPP-IX) were mixed and then transferred to a 96-well plate. Each test contains double-well of three-well control. The same volume of DMSO was added to the negative control and blank control. Then the 96-well plate was added with mixed solution of luciferin detection reagent and substrate to initiate the reaction. The 96-wells plate was incubated at room temperature on a plate shaker for 40 minutes after sealed. The strength of the fluorescent signal in each well was determined by microplate reader and the inhibition rate to the enzyme of the compound at this concentration was calculated by the formula as following: inhibitory rate: IR=[1−(S−B)/(N−B)]*100% • S: value of the sample • B: value of the blank control • N: value of the negative control
(§5) IC50 of the test compounds can be calculated by the inhibition rate at different concentration.

DPP-IV [1] = molecular target: T2, DPP-IV (Homo sapiens, UniProt P27487); conditions: example 10 of PCT/CN2008/001936; cited from earlier work
T2 construct: purchased Calbiochem 317630

[2] = Pharmacokinetics assay in rats (LC/MS/MS plasma concentration); type: in vivo, SD rats; conditions: for half-life / AUC(0-t) / CL/F / Cmax / MRT / Tmax / Vd/F: intragastric 3.0 mg/kg; for MRT: read-out: MRT; for Tmax: read-out: Tmax; for Vd/F: read-out: Vz/F; for F: intragastric 3.0 mg/kg (as free base), absolute bioavailability from AUC0-t vs vein injection
Excerpt: The compound of Example 3 was administrated intragastrically or tail vein injection to rats and the compounds of Example 1-4, Example 9 and Example 11-12 were administrated intragastrically to determine the drug concentration in plasma at different time points by LC/MS/MS measurement. The pharmacokinetics of the compounds of the present invention was studied and evaluated in rats. And the oral absolute bioavailability was investigated.
Compounds of Example 1-4, Example 9 and Example 11-12.
[…] healthy adult SD rats, male and female in half, were purchased from SINO-BRITSH SIPPR/BK LAB.ANIMAL LTD., CO, License number: SCXK (Shanghai) 2008-0016.
Vein injection group: the proper weighed test compound was dissolved in 0.5 mL of DMSO by ultrasound and then diluted with normal saline to 15 mL to form a 0.3 mg/mL solution.
Intragastrically administered group: the proper weighed test compound was dissolved in 0.5% CMC-Na by ultrasound to form a 0.3 mg/mL of suspension.
32 healthy adult SD rats, male and female in half, were divided into 8 groups so that each group consisted 4 rats. After an overnight fast, the rats were tail vein injected of the compound of Example 3 and intragastrically administered the compound of Example 3 and the salt thereof, at a dose of 3.0 mg/kg (calculated as the free base form) and a volume of 10 mL/kg.
Blood samples (0.2 mL) of the rats in vein injection group were taken from eye socket at pre administration and at 2, 15, 30 minutes and 1.0, 2.0, 4.0, 6.0, 8.0, 12.0, 24.0 hours post administration, which were stored in heparinized tubes and centrifuged for 10 minutes at 3,500 rpm. The plasma samples were stored at −20° C. until analysis. The rats were fed 2 hours after administration.
Blood samples of the rats in intragastrically administered group were taken at pre administration and at 0.5, 1.0, 2.0, 3.0, 4.0, 6.0, 8.0, 12.0, 24.0 hours post administration. The samples were treated with the same method as mentioned above.
50 μL of internal standard solution and 150 μL of methanol were added to 50 μL of rat plasma obtained at various time points after administration. Then the mixture was mixed for 3 minutes using a vortexer and centrifuged for 10 minutes at 13,500 rpm. 10 μL of the supernatant was analyzed by LC/MS/MS.
The compartmental model of pharmacokinetics was fitted for the test compounds and the major pharmacokinetic parameters were calculated by DAS 2.0 software in which Cmax and tmax were the actually measured values. The absolute bioavailability was calculated by AUC0-t taken from post administration and vein injection.

DPP-VIII = molecular target: T3, DPP-VIII (Homo sapiens, UniProt Q6V1X1); experiment: DPP-VIII inhibition, Promega DPPIV-Glo Protease Assay; type: biochemical; conditions: read-out: IC50 DPP8
T3 construct: purchased Bioscience 80080
Procedure: as §1, §2
b. DPP-VIII enzyme bought from Bioscience, Catalog no. 80080;
as §3, §4, §5

normal ICR mice = experiment: Hypoglycemic effect, oral glucose tolerance in normal ICR mice; type: in vivo; conditions: 10 mg/kg by gavage, glucose 4 g/kg 15 minutes after administration
Procedure: To observe the effects on oral glucose tolerance of the compounds of Example 1-4 and Example 8-12 in normal ICR mice (SINO-BRITSH SIPPR/BK LAB.ANIMAL LTD., CO), the hypoglycemic effects in vivo have been evaluated using blood-glucose meter to measure and analyze the sugar content of the samples at different time points during 2 hours. The samples were taken from the mouse's tail.
The administration dose was 10 mg/kg, and the blank was administered with water. Both groups contained 5% DMSO.
The mice were administered by gavage. 4 g/kg of 10% glucose solution was administered (0.8 mL to each mice) 15 minutes after administration.
The mice were administered according to above dose (the blank group was administrated with 5% DMSO aqueous solution) and the blood sugar value was measured (−15 minutes).
15 minutes after administration, the mice were administered of 4 g/kg of 20% glucose solution and the values of blood sugar were tested by Roche ACCU-CHEK at 0, 15, 30, 45, 60, 120 minutes.

[3] = Solubility experiment in four systems; type: physicochemical
Procedure: According to the conventional solubility measurement, the solubility of the test samples were determined in four different systems: phosphate buffer solution (PBS, pH=7.4), methanol, 0.1% hydrochloric acid and water.

DPP-IV [4] = molecular target: T2, DPP-IV; experiment: DPP-IV inhibition, Promega DPPIV-Glo Protease Assay; type: biochemical
Procedure: as §1, §2
a. DPP-IV enzyme bought from Calbiochem, Catalog no. 317630;
as §3, §4, §5

[5] = both sexes, SD, rat, plasma, po, 3 mg/kg
[6] = both sexes, SD, rat, plasma, po, 3 mg/kg, read-out: AUC0-t
[7] = both sexes, SD, rat, plasma, po, 3 mg/kg, read-out: CL/F (converted)
[8] = both sexes, SD, rat, plasma, po, 3 mg/kg, read-out: Cmax
[9] = 0.1% hydrochloric acid, simulated gastric fluid, 0.1% hydrochloric acid, read-out: Solubility Value, 0.1% HCl
[10] = methanol, organic solvent or mixture, methanol, read-out: Solubility Value, methanol
[11] = phosphate buffer solution (PBS), pH 7.4, aqueous buffer, PBS pH 7.4, read-out: Solubility Value, PBS (pH 7.4)
[12] = water, read-out: Solubility Value, water

T2 sequence (P27487 whole entry): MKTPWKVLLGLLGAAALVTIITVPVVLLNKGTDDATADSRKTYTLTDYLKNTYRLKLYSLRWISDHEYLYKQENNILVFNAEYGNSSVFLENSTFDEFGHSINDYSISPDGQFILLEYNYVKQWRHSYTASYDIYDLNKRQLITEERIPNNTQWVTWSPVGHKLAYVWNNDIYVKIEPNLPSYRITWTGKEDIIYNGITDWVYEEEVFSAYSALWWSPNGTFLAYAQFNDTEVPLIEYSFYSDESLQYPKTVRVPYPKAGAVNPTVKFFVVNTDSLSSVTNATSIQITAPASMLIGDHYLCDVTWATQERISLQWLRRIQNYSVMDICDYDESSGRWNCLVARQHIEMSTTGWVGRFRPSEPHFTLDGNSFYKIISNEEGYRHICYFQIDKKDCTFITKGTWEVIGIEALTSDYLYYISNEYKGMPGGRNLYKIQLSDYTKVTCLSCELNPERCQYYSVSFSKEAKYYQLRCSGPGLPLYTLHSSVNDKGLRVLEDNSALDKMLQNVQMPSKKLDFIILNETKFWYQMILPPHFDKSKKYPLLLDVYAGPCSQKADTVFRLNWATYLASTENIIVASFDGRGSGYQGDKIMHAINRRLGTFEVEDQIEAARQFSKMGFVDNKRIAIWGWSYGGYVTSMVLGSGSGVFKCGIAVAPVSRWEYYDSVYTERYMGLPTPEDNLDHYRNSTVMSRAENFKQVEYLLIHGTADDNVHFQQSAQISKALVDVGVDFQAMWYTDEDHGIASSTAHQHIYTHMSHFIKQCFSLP
T3 sequence (Q6V1X1 whole entry): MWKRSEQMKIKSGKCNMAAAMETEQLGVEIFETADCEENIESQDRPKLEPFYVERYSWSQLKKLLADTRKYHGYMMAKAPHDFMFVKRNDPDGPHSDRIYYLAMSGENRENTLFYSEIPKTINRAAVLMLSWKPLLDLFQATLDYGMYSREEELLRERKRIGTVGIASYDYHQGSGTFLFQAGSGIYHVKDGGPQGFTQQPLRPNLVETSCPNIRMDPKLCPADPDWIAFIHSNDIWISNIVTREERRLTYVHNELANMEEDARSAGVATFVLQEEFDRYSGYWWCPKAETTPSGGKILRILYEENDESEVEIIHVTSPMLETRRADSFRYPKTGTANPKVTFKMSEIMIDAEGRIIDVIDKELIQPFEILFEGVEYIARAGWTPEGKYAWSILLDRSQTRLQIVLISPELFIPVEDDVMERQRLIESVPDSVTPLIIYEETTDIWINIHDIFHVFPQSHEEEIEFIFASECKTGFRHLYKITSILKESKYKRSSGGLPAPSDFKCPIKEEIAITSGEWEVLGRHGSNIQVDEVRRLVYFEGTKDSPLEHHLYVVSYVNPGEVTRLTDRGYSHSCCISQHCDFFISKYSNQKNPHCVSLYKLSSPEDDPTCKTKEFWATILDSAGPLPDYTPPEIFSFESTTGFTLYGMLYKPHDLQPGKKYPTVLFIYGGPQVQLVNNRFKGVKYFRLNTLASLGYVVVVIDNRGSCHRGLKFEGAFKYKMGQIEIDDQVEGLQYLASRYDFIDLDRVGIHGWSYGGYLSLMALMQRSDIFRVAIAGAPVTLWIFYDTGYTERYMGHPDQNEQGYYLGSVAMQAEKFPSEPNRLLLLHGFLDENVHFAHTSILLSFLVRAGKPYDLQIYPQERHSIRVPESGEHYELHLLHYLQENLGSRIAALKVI
T1 sequence (Q86TI2 whole entry): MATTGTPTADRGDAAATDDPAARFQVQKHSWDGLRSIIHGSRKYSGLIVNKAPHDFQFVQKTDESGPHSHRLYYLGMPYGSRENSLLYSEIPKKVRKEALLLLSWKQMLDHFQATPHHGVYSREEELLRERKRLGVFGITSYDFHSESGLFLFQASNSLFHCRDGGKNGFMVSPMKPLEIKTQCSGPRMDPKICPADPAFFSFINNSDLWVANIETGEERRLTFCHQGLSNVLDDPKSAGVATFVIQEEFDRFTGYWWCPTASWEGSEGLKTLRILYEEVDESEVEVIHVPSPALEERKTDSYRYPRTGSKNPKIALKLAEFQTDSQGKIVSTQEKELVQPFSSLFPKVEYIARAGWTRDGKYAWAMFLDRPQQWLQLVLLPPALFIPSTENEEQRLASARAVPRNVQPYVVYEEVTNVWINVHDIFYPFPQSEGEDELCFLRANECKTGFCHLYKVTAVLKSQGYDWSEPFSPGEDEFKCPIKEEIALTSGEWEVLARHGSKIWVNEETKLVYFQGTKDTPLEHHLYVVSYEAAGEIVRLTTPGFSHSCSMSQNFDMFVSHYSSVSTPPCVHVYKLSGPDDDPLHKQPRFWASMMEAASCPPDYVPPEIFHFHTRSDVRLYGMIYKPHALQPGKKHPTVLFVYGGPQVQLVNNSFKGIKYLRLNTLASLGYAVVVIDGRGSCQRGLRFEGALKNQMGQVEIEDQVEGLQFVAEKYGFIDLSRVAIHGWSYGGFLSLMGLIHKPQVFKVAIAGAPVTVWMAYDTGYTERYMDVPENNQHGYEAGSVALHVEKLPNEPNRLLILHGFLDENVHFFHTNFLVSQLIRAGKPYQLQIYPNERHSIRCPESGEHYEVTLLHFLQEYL

Structure (SMILES) | IC50 (DPP-IX) [µM] | half-life [2, 5] [h] | AUC(0-t) [2, 6] [ng·h/mL] | CL/F [2, 7] [mL/min/kg] | Cmax [2, 8] [ng/mL] | MRT [2, 5] [h] | Tmax [2, 5] [h] | Vd/F [2, 5] [L/kg] | F [2] [%] | IC50 (DPP-VIII) [µM] | solubility [3, 9] [mg/mL] | solubility [3, 10] [mg/mL] | solubility [3, 11] [mg/mL] | solubility [3, 12] [mg/mL] | IC50 (DPP-IV [4]) [µM] | Hypoglycemic rate of blood sugar of 30 minutes after administration (normal ICR mice) [%] | other results
N[C@@H](CC(=O)N1CCn2c(C(F)(F)F)nc(C(=O)[O-])c2C1)Cc1cc(F)c(F)cc1F.[Na+] [Example 4, Sodium (R)-7-[3-amino-4-(2,4,5-trifluorophenyl)butanoyl]-3-trifluoromethyl-5,6,7,8-tetrahydro-imidazo[1,5-a]pyrazine-1-carboxylate] | 42.3 | 2.65 ± 0.94 | 66.6 ± 10.6 | 728 | 14.2 ± 2 | 4.3 ± 0.6 | 1.75 ± 0.96 | 164 ± 56 | 2.90 | 77.3 | 94.8 | 46.7 | 57.4 | 43.5 | 0.022 | 9.49 | –
N[C@@H](CC(=O)N1CCn2c(C(F)(F)F)nc(C(=O)O)c2C1)Cc1cc(F)c(F)cc1F.O=C(O)C[C@H](O)C(=O)O [Example 11, (R)-7-[3-Amino-4-(2,4,5-trifluorophenyl)butanoyl]-3-trifluoromethyl-5,6,7,8-tetrahydro-imidazo[1,5-a]pyrazine-1-carboxylic acid (2S)-2-hydroxybutanedioic acid] | 180 | 2.21 ± 0.69 | 69.5 ± 25.2 | 777 | 13.5 ± 3.9 | 4.5 ± 1.32 | 1.63 ± 1.11 | 140 ± 39 | 3.03 | 280 | 32.6 | 5.4 | 19.5 | 22.2 | 0.009 | 20.18 | –
N[C@@H](CC(=O)N1CCn2c(C(F)(F)F)nc(C(=O)O)c2C1)Cc1cc(F)c(F)cc1F.O=C(O)C(O)C(O)C(=O)O [Example 12, (R)-7-[3-Amino-4-(2,4,5-trifluorophenyl)butanoyl]-3-trifluoromethyl-5,6,7,8-tetrahydro-imidazo[1,5-a]pyrazine-1-carboxylic acid (2S,3S)-2,3-dihydroxybutanedioic acid] | 135 | 2.54 ± 0.86 | 74.6 ± 21.7 | 672 | 17 ± 6.9 | 4.23 ± 0.84 | 1.75 ± 0.5 | 154 ± 77 | 3.25 | 244 | 33.8 | 0.5 | 12.3 | 19.5 | 0.012 | 24.11 | –

The next lines start with results.

IC50 (DPP-IX) [µM] | half-life [2, 5] [h] | AUC(0-t) [2, 6] [ng·h/mL] | CL/F [2, 7] [mL/min/kg] | Cmax [2, 8] [ng/mL] | MRT [2, 5] [h] | Tmax [2, 5] [h] | Vd/F [2, 5] [L/kg] | F [2] [%] | IC50 (DPP-VIII) [µM] | solubility [3, 9] [mg/mL] | solubility [3, 10] [mg/mL] | solubility [3, 11] [mg/mL] | solubility [3, 12] [mg/mL] | IC50 (DPP-IV [4]) [µM] | Structure (SMILES) | Hypoglycemic rate of blood sugar of 30 minutes after administration (normal ICR mice) [%] | other results
63.6 | 1.74 ± 0.16 | 66.6 ± 19.5 | 760 | 18 ± 7.5 | 3.17 ± 0.36 | 2.5 ± 1 | 114 ± 27 | 2.90 | 87.9 | 17.2 | 31.3 | 18.6 | 20.9 | – | Cl.N[C@@H](CC(=O)N1CCn2c(C(F)(F)F)nc(C(=O)O)c2C1)Cc1cc(F)c(F)cc1F [Example 1, (R)-7-[3-Amino-4-(2,4,5-trifluorophenyl)-butanoyl]-3-trifluoromethyl-5,6,7,8-tetrahydro-imidazo[1,5-a]pyrazine-1-carboxylic acid hydrochloride] | 16.06 | inhibition activity against DPP-IV (in words) (DPP-IV [1]): excellent inhibition activity
128 | 3.18 ± 0.71 | – | – | – | 4.34 ± 0.66 | 1.25 ± 0.5 | – | 4.06 | 114 | – | – | – | – | 0.012 | N[C@@H](CC(=O)N1CCn2c(C(F)(F)F)nc(C(=O)O)c2C1)Cc1cc(F)c(F)cc1F [Example 9, 2-Hydroxyethylammonium (R)-7-[3-amino-4-(2,4,5-trifluorophenyl)butanoyl]-3-trifluoromethyl-5,6,7,8-tetrahydro-imidazo[1,5-a]pyrazine-1-carboxylate] | – | AUC(0-t) [2]: 93.2 ± 36.4 ng·h/mL; CL/F [2]: 548 ± 167 mL/min/kg; Cmax [2]: 25.1 ± 13.9 ng/mL; Hypoglycemic rate of blood sugar of 30 minutes after administration (normal ICR mice; 10 mg/kg): 27.56%; Solubility Value, 0.1% HCl ([3]; 0.1% hydrochloric acid): 12.6 mg/mL; Solubility Value, PBS (pH 7.4) ([3]; PBS pH 7.4): 0.3 mg/mL; Solubility Value, methanol ([3]; methanol): 35.2 mg/mL; Solubility Value, water ([3]; water): 1.0 mg/mL
